Assay results published in ChEMBL document CHEMBL1122344, “Pyridazinones. 2. Synthesis and antisecretory and antiulcer activities of thiourea and 2-cyanoguanidine derivatives” (1983).

What was measured:
Assay type in all cases: functional
[1] = system: Rattus norvegicus; test: Gastric antisecretory activity at the dose of 100 mg/kg in pylorus lygated rats
[2] = species: Rattus norvegicus; test: Dose required to inhibit gastric secretory activity in pylorus lygated rats; details: Stomach
[3] = species: Rattus norvegicus; test: Dose required to inhibit ulcer induced by stress in rats

SMILES	inhibition in vivo at 100 mg/kg [1] [%]	ED50 [2] [mg/kg]	ED50 [3] [mg/kg]
N#CN/C(=N\CCCCn1nc(-c2ccccc2)ccc1=O)NCCc1ccccc1	0.3	–	–
N/C(S)=N/CCCCn1nc(-c2ccccc2)ccc1=O	72	36.3	–
C/N=C(/NC#N)NCCCn1nc(C)ccc1=O	6.8	–	–
C/N=C(\S)NCCCn1nc(C)ccc1=O	-8.2	–	–
C/N=C(/NC#N)NCCCCCn1nc(-c2ccccc2)ccc1=O	47.6	100	76.2
CC/N=C(/NC#N)NCCCCn1nc(-c2ccccc2)cc(C)c1=O	42.5	> 100	–
C/N=C(/NC#N)NCCCCn1nc(-c2ccc(Cl)cc2)ccc1=O	51	100	–
CN/C(=N/CCCCn1nc(-c2ccc(OC)cc2)ccc1=O)NC#N	48.5	> 100	–
C/N=C(/NC#N)NCCCCCn1nc(C)ccc1=O	14.9	–	–
CC/N=C(\S)NCCCCCn1nc(-c2ccccc2)ccc1=O	66.4	51.8	–
CCC/N=C(/NC#N)NCCCn1nc(-c2ccccc2)ccc1=O	52.9	100	–
CN(C)/C(=N/CCCCCCn1nc(-c2ccccc2)ccc1=O)NC#N	58.4	93.1	92.5
CCC/N=C(/NC#N)NCCCn1nc(C)ccc1=O	17.5	–	–
C/N=C(\S)NCCCCn1nc(C)ccc1=O	44.5	> 100	–
O=c1ccc(-c2ccccc2)nn1CCCNC(=S)NC1CCCCC1	23.6	–	–
O=c1ccc(-c2ccccc2)nn1CCCCNC(=S)NC1CCCCC1	18.1	–	–
CC(C)C/N=C(\S)NCCCCn1nc(-c2ccccc2)ccc1=O	35.8	> 100	–
CC(C)(C)/N=C(\S)NCCCCn1nc(-c2ccccc2)ccc1=O	33.6	> 100	–
CC/N=C(\S)NCCCCn1nc(-c2ccccc2)ccc1=O	67.7	37.2	19.8
CCC/N=C(/NC#N)NCCCCn1nc(-c2ccccc2)ccc1=O	26.3	> 100	–
C/N=C(/NC#N)NCCCCn1nc(N(C)C)ccc1=O	26.3	> 100	–

SMILES	inhibition in vivo at 100 mg/kg [1] [%]	ED50 [2] [mg/kg]	ED50 [3] [mg/kg]
O=c1ccc(-c2ccccc2)nn1CCCCNC(=S)Nc1ccccc1	38.4	> 100	> 100
CC/N=C(\S)NCCCn1nc(-c2ccccc2)ccc1=O	39	> 100	88.2
C/N=C(/NC#N)NCCCCn1nc(C)ccc1=O	23.5	> 100	–
C/N=C(\S)NCCn1nc(-c2ccccc2)ccc1=O	23.3	–	> 100
C/N=C(\S)NCCCCCCn1nc(C)ccc1=O	-12.5	–	–
CC/N=C(/NC#N)NCCCCn1nc(-c2ccccc2)ccc1=O	58.8	92	60.7
C/N=C(/NC#N)NCCCCCCn1nc(-c2ccccc2)ccc1=O	31.7	> 100	> 100
C/N=C(/NC#N)NCCCn1nc(-c2ccccc2)ccc1=O	40.5	> 100	78.1
C/N=C(/NC#N)NCCCn1nc(-c2ccccc2)cc(C)c1=O	42.8	> 100	–
CC/N=C(\S)NCCCCCCn1nc(-c2ccccc2)ccc1=O	-5.6	–	–
O=c1ccc(-c2ccccc2)nn1CCCCNC(=S)Nc1ccc(Cl)cc1	43.2	> 100	–
CN/C(=N\CCSCc1nc[nH]c1C)NC#N [CIMETIDINE]	80.6	–	43.2
C/N=C(/NC#N)NCCCCn1nc(-c2ccccc2)c(C)cc1=O	46.4	> 100	–
C/N=C(/NC#N)NCCCCCn1nc(-c2ccccc2)cc(C)c1=O	33.8	> 100	–
N#CNC(=N)NCCn1nc(-c2ccccc2)ccc1=O	18.5	–	–
O=c1ccc(-c2ccccc2)nn1CCNC(=S)Nc1ccccc1	-3.4	–	–
C/N=C(\NC#N)NCCCCn1nc(-c2ccccc2)ccc1=O	79	–	–
CC/N=C(/NC#N)NCCCCCn1nc(-c2ccccc2)ccc1=O	48.2	100	60.3
C/N=C(/NC#N)NCCCCn1nc(N2CCN(C)CC2)ccc1=O	7.9	–	–
N#CNC(=N)NCCCCn1nc(-c2ccccc2)ccc1=O	61.2	77.2	59.3
C/N=C(/NC#N)NCCCCn1nc(-c2ccc(C)cc2)ccc1=O	45.7	> 100	–

SMILES	inhibition in vivo at 100 mg/kg [1] [%]	ED50 [2] [mg/kg]	ED50 [3] [mg/kg]
C=CCNC(=S)NCCCCn1nc(-c2ccccc2)ccc1=O	27.1	> 100	78.6
CC/N=C(/NC#N)NCCCn1nc(C)ccc1=O	34.5	> 100	–
C/N=C(/NC#N)N(C)CCCCn1nc(-c2ccccc2)ccc1=O	27	> 100	–
C/N=C(\S)NCCCCn1nc(-c2ccccc2)ccc1=O	87.1	28.9	17.3
C/N=C(/NC#N)NCCCCn1nc(N2CCOCC2)ccc1=O	-10.2	–	–
CC/N=C(/NC#N)NCCCn1nc(-c2ccccc2)c(C)cc1=O	0.2	–	–
C/N=C(\S)NCCCn1nc(-c2ccccc2)ccc1=O	38.9	> 100	58
O=c1ccc(-c2ccccc2)nn1CCCCNC(=S)NCc1ccccc1	5.4	–	–
CC/N=C(\S)NCCn1nc(-c2ccccc2)ccc1=O	8.1	–	–
CCC/N=C(/NC#N)NCCCCCn1nc(-c2ccccc2)ccc1=O	27.5	> 100	–
CN(C)/C(=N/CCCCCn1nc(-c2ccccc2)ccc1=O)NC#N	63.9	81.5	53.1
C/N=C(/NC#N)NCCn1nc(-c2ccccc2)ccc1=O	-3.5	–	–
CC/N=C(/NC#N)NCCCn1nc(-c2ccccc2)ccc1=O	62.9	78.3	88.5
CC/N=C(/NC#N)NCCCn1nc(-c2ccccc2)cc(C)c1=O	23.5	–	–
CNC(=S)CCCCCn1nc(-c2ccccc2)ccc1=O	90.3	23.8	18.3
C/N=C(\S)NCCn1nc(C)ccc1=O	6	–	–
N#CNC(=N)NCCCCCCn1nc(-c2ccccc2)ccc1=O	20.5	–	–
CC/N=C(/NC#N)NCCCCn1nc(C)ccc1=O	13.5	–	–
O=c1ccc(-c2ccccc2)nn1CCNC(=S)NC1CCCCC1	12.3	–	–
C#CCN/C(=N/CCCn1nc(-c2ccccc2)ccc1=O)NC#N	-11.8	–	–
CN(C)/C(=N/CCCCn1nc(-c2ccccc2)ccc1=O)NC#N	80.7	30.3	52.9

SMILES	inhibition in vivo at 100 mg/kg [1] [%]	ED50 [2] [mg/kg]	ED50 [3] [mg/kg]
C/N=C(/NC#N)NCCCCn1nc(Nc2ccccc2)ccc1=O	24.4	> 100	–
C/N=C(/NC#N)NCCCCn1nc(-c2ccccc2)cc(C)c1=O	68.6	60.8	–
C/N=C(/NC#N)NCCCCn1nc(N2CCCC2)ccc1=O	-1	–	–
O=c1ccc(-c2ccccc2)nn1CCCNC(=S)Nc1ccccc1	12.1	–	–
O=c1ccc(-c2ccccc2)nn1CCCC/N=C(\S)Nc1ccc(S(=O)(=O)O)cc1	25.1	–	–
C/N=C(/NC#N)NCCCCCn1nc(-c2ccccc2)c(C)cc1=O	28.5	> 100	–
C/N=C(\S)NCCCCCn1nc(C)ccc1=O	3.2	–	–
C/N=C(\S)N(C)CCCCn1nc(-c2ccccc2)ccc1=O	17.5	–	–
O=c1ccc(-c2ccccc2)nn1CCCC/N=C(\S)Nc1ccc(F)cc1	45.6	> 100	–
C/N=C(/NC#N)NCCCn1nc(-c2ccccc2)c(C)cc1=O	17.2	–	–
O=c1ccc(-c2ccccc2)nn1CCCCNC(=S)Nc1cccc2ccccc12	42.3	> 100	–
N#CNC(=N)NCCCn1nc(-c2ccccc2)ccc1=O	33.3	> 100	–
C#CCN/C(=N/CCCCn1nc(-c2ccccc2)ccc1=O)NC#N	-12.9	–	–
N#CNC(=N)NCCCCCn1nc(-c2ccccc2)ccc1=O	31	> 100	–
O=c1ccc(-c2ccccc2)nn1CCCC/N=C(\S)Nc1cccc(F)c1	30.4	> 100	–
CC/N=C(/NC#N)NCCCCCCn1nc(-c2ccccc2)ccc1=O	29.1	> 100	> 100
C/N=C(\S)NCCCCCn1nc(-c2ccccc2)ccc1=O	68.9	35.3	42.1
C/N=C(\S)NCCCCCCn1nc(-c2ccccc2)ccc1=O	22.2	–	–
CC/N=C(/NC#N)NCCCCn1nc(-c2ccccc2)c(C)cc1=O	38.8	> 100	–
CN(C)/C(=N/CCCn1nc(-c2ccccc2)ccc1=O)NC#N	72.2	53	93.1
CN(C)/C(=N/CCn1nc(-c2ccccc2)ccc1=O)NC#N	63.9	62.8	> 100
